Calls of active or inactive are those of the source.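 The calls were made as follows: active = compounds giving half or more protection of infected cells from virus-caused growth loss, again on retest; inactive = the rest.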
System: CEM cells HIV-1 protection, formazan growth assay
Experiment: NCI AIDS Antiviral Assay
Details: for IC50: measured here: growth of uninfected CEM cells
Method in brief: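 Human CEM cells, uninfected and HIV-1-infected, received five drug concentrations, and growth was read by soluble formazan assay. Compounds giving at least 50% protection were retested; reproducible 100% protection defined confirmed active.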

| SMILES | EC50 [µM] | IC50 [µM] | outcome |
| --- | --- | --- | --- |
| CCOC(=O)c1ccc(CSc2ccc(N)cc2)c([N+](=O)[O-])c1 | > 40.7 | > 40.7 | – |
| COc1ccc(C(=O)/C=C/c2cccnc2)cc1OC | > 200 | 2.75 | – |
| COc1cccc(C(=O)C2C(=O)N(C)CCc3ccccc32)c1OC (stereo unspecified) | > 148 | > 148 | – |
| CCN1CCC2(CC1)OC(c1ccccc1)C(c1ccccc1)O2 (stereo unspecified) | > 200 | 112 | – |
| CC(C)OC(=O)c1ccc(CCC2=CC(=O)C(Br)=CC2=O)cc1 | > 200 | 8.71 | – |
| S=c1n(-c2ccc(Cl)cc2)c2nc3ccccc3nc(/c2=N\Nc2cc(Cl)ccc2Cl)n1-c1ccc(Br)cc1 | > 75.9 | 19.5 | – |
| S=C1Nc2ccccc2SC1c1ccccc1 (stereo unspecified) | > 200 | 31.6 | – |
| c1cc2nnc1SCCSCCSc1ccc(nn1)SCCSCCS2 | > 200 | > 200 | – |
| CC1(C)COC(c2cccc3c2C2C=CC3O2)=N1 (stereo unspecified) | > 200 | > 200 | – |
| CN(C)c1ccc(-c2c3ccccc3nc3ccccc23)cc1 | > 4.57 | > 4.57 | – |
| OC(c1cc2ccccc2[nH]1)C1(c2cccnc2)SCCCS1 (stereo unspecified) | > 200 | 57.5 | – |
| CCCNC(=O)C1C(=O)C(=O)N(CCC)C1=O (stereo unspecified) | – | – | inactive |
| Cc1cccc2c(=O)c3c(O)cc4c(c3n(C)c12)C=CC(C)(C)O4 | > 200 | 14.8 | – |
| CC(C)(NC(=O)OCc1ccccc1)C(=O)OC(=O)C(C)(C)NC(=O)OCc1ccccc1 | > 200 | > 200 | – |
| Cc1cc(OCC(O)CO)ccc1Cl (stereo unspecified) | > 1150 | 550 | – |
| COC(=O)C1C(=O)C(C(=O)OC)C2(C)C(C(=O)OC)C(=O)C(C(=O)OC)C12 (stereo unspecified) | > 468 | > 468 | – |
| CCCC/S(C)=N/S(=O)(=O)c1ccc(C)cc1 (stereo unspecified) | > 200 | > 200 | – |
| COc1cc(CC(C(=O)OC(C)(C)C)C(=O)OC(C)(C)C)c(NC(C)=O)c(OC)c1OC | > 200 | > 200 | – |
| CCOP(=O)(OCC)/C(C#N)=C/c1ccc(Cl)cc1 | > 316 | 195 | – |
| CC(=O)c1cccc2c1CC1(C2)Cc2ccc3c(c2C1=O)CCC3 (stereo unspecified) | > 200 | > 200 | – |
| CN(C)C(=O)NCCN1CCCCCc2ccccc21 | > 200 | 49 | – |
| C[Si](C)(C)O[C@@H]1CCCC1NCC#N (stereo partly specified) | – | – | inactive |
| CC1(C)COC(C23C4C5C2C2C3C4C52I)=N1 (stereo unspecified) | > 79.4 | > 79.4 | – |

| SMILES | EC50 [µM] | IC50 [µM] | outcome |
| --- | --- | --- | --- |
| O=C(Nc1ccc(Br)cc1)c1c(-c2ccccc2)c2ccc(O)cc2oc1=O | > 34.7 | 32.4 | – |
| CCC(C)SC1SCC2C(=O)N(C)C3(CC3C)C(=O)OCC(NC(=O)c3nc4ccccc4cc3O)C(=O)NC(C)C(=O)N(C)C1C(=O)N(C)C1(CC1C)C(=O)OCC(NC(=O)c1nc3ccccc3cc1O)C(=O)NC(C)C(=O)N2C (stereo unspecified) | > 0.02 | 8.71e-05 | – |
| O=C1OC(c2ccccc2)N/C1=C\c1ccc2c(c1)OCO2 (stereo unspecified) | > 200 | 69.2 | – |
| COc1ccc(NC2Oc3cc4c(cc3C(c3cccc(OC)c3OC)C2C)OCO4)cc1 (stereo unspecified) | > 200 | 1.95 | – |
| O=C1CCC(N2C(=O)C3CCCCC3C2=O)C(=O)N1 (stereo unspecified) | > 200 | > 200 | – |
| ClC1=NSSC1(Cl)Cl | > 200 | 27.5 | – |
| O=C1NC(=S)N/C1=C\c1ccc(Br)s1 | > 200 | 112 | – |
| CC(C)/C(Cl)=N/OC(=O)Nc1ccc(Br)cc1 | > 20 | 3.72 | – |
| Nc1ccccc1-c1ccn[nH]1 | > 200 | > 200 | – |
| Cc1cc([N+](=O)[O-])c(S(=O)(=O)c2ccccc2)c([N+](=O)[O-])c1 | > 22.4 | 3.63 | – |
| COC1CC[C@@H]2CC(=O)CC[C@]2(C)C1=O (stereo partly specified) | – | – | inactive |
| CCOC(=O)C1S/C(=N\C(=N)N[N+](=O)[O-])N=C1C (stereo unspecified) | – | – | inactive |
| CC(=O)c1ccc2c(c1)CC1(C2)Cc2cc3c(c(C(=O)O)c2C1)CCC3 (stereo unspecified) | > 200 | 61.7 | – |
| CCCCCCCCCCCCOP(=O)(O)OP(=O)(O)OCC1OC(n2cc(C)c(=O)[nH]c2=O)CC1O (stereo unspecified) | > 200 | 102 | – |
| CC(C)(C)n1c(=O)n2c(-c3ccccc3)c(-c3ccccc3)n2c1=O | > 200 | 25.7 | – |
| CC1=NOC(=O)/C1=C/c1cccc2ccccc12 | > 1050 | > 1050 | – |
| COC(=O)C1CC(C(=O)OC)c2nc3cc(C)c(C)cc3nc21 (stereo unspecified) | > 83.2 | > 83.2 | – |
| O=C(O)C12C3CCC(O3)C1(C(=O)O)C1CCC2O1 (stereo unspecified) | > 200 | > 200 | – |
| CCN1/C(=C/C#C/C(C)=C\c2sc3ccc(Cl)cc3[n+]2CC)Sc2ccc(Cl)cc21 | > 20 | 2.24 | – |
| CCOC(=O)C(=[N+]=[N-])C(=O)Nc1nn2nnnc2c2ccccc12 | > 200 | > 200 | – |
| N#CC1(C#N)NC(c2cccs2)C(C#N)(C#N)NC1c1cccs1 (stereo unspecified) | > 200 | 26.9 | – |
| O=C1C=CC(=O)N1n1c(Cc2ccccc2)n[nH]c1=O | > 200 | > 200 | – |
| COc1cc2c(c(O)c1OC)CC1CCC(=O)N1C2c1cccc2ccccc12 (stereo unspecified) | > 200 | 17.4 | – |

| SMILES | EC50 [µM] | IC50 [µM] | outcome |
| --- | --- | --- | --- |
| O[Si](c1ccc(C(F)(F)F)cc1)(c1cccc(C(F)(F)F)c1)c1cccc(C(F)(F)F)c1 | > 200 | 10.5 | – |
| COC1=CCC=C(C[C@@H]2NCCc3cc(OC)c(OC)cc32)C1 | > 200 | > 200 | – |
| O=C1CN=C(c2ccccn2)c2cc(Cl)ccc2N1 | > 479 | 72.4 | – |
| O=C(O)/C=C/c1ccc(O)c(O)c1 | > 1380 | 66.1 | – |
| CCOP(=O)(OCC)C(F)(F)Cc1cnc(C)c2c1COC(C)(C)O2 | > 200 | > 200 | – |
| CCOC(=O)Cn1c(=O)c(-c2ccccc2NC(C)=O)nc2ccccc21 | > 200 | > 200 | – |
| CN1C(=O)CC(Sc2ccccc2)c2cc(Cl)ccc21 (stereo unspecified) | > 200 | 15.8 | – |
| O=[N+]([O-])c1ccc(/C=C/c2cc(-c3ccccc3)nc3ccc4ccccc4c23)cc1 | > 200 | > 200 | – |
| CC1=C(C(=O)Nc2ccc([N+](=O)[O-])cc2)C(c2ccc(N(C)C)cc2)C(C(=O)Nc2ccc([N+](=O)[O-])cc2)=C(C)N1 | > 17.8 | > 17.8 | – |
| c1ccc(-c2cc(-c3ccncc3)cc(-c3ccncc3)n2)cc1 | > 200 | > 200 | – |
| CNc1ccc(C=C2C=CC=C2)cc1 | > 74.1 | 39.8 | – |
| CCOc1ccc2nc(NC(=O)C(=O)C(C(=O)c3ccccc3F)C3OC(=O)c4ccccc43)sc2c1 (stereo unspecified) | > 182 | 8.13 | – |
| Cc1ccc2c(c1)C(=O)/C(=C\c1ccccc1)CCS2(=O)=O | > 200 | 2.88 | – |
| CCOCC=NCC(=O)OCC | > 1450 | > 1450 | – |
| O=c1sc2ncccc2n1-c1ccc([N+](=O)[O-])cn1 | > 91.2 | > 91.2 | – |
| CC1(C)N([O-])[N+](=O)C1(C)O (stereo unspecified) | > 200 | > 200 | – |
| CC(C)[C@@H]1CC[C@@H](C)C[C@H]1OC(=O)/C=C1\C(C(=O)O[C@@H]2C[C@H](C)CC[C@H]2C(C)C)[C@H]2C=C[C@@H]1O2 (stereo partly specified) | > 200 | > 200 | – |
| N#C/C(=C\c1ccc(F)cc1)C(=O)c1ccccc1 | > 70.8 | – | – |
| CC(=O)N(C)C(c1ccccc1)(c1ccccc1)c1ccccc1 | > 200 | 35.5 | – |
| O=C(CSSCC(=O)c1ccccc1)c1ccccc1 | > 89.1 | 11 | – |
| N#C/C(=C/c1ccc([N+](=O)[O-])o1)c1ccccc1 | > 1050 | 61.7 | – |
| NC(=O)C(=O)C(c1ccccc1)S(=O)(=O)Cc1ccccc1 (stereo unspecified) | > 200 | > 200 | – |
| c1cc[c]([Sn]([S]c2cccc3cccnc23)([c]2ccccc2)[c]2ccccc2)cc1 | – | – | inactive |

| SMILES | EC50 [µM] | IC50 [µM] | outcome |
| --- | --- | --- | --- |
| CC1=NS(=O)(=O)NC(C)=C1CC1=C(C)NS(=O)(=O)N=C1C | > 269 | > 269 | – |
| Nn1c(Cc2ccc(Cl)cc2)n[nH]c1=O | > 200 | > 200 | – |
| COc1cc(N=Nc2ccccc2C(=O)[O-])cc(/C=N/NC(=S)Nc2ccc(C)cc2)c1[O-].[Cu+].[Cu+] | – | – | inactive |
| CC1(C)SCc2nc3ncccc3n21 | > 1230 | 617 | – |
| Cc1nc2c(C)ccc([N+](=O)[O-])c2c(NCCCN(C)C)c1C | > 200 | 69.2 | – |
| O=C(NNC(=S)Nc1ccccc1)c1ccccc1Nc1ccccc1C(=O)NNC(=S)Nc1ccccc1 | > 30.9 | 30.2 | – |
| CCCCOC(=O)C(NC(C(=O)OCCCC)c1cc(C(C)(C)C)c(O)c(C(C)(C)C)c1)c1cc(C(C)(C)C)c(O)c(C(C)(C)C)c1 (stereo unspecified) | > 200 | > 200 | – |
| CCN(CCO)C(=O)C1(c2ccccc2)CCCCC1 | > 501 | 60.3 | – |
| COc1ccc(Nc2ccc3ccccc3c2-c2c(O)ccc3ccccc23)cc1 | > 200 | 10.5 | – |
| Clc1ccc(Nc2nn3c(CCCCCCCCc4nnc5sc(Nc6ccc(Cl)cc6)nn45)nnc3s2)cc1 | > 200 | 112 | – |
| CCc1cc2c(oc3cc(C)ccc32)c(=O)n1C | > 200 | 97.7 | – |
| CC(C)OP(=O)(OC(C)C)C(N(C)C)P(=O)(OC(C)C)OC(C)C.[Cl][Sn]([Cl])([Cl])[c]1ccccc1 | – | – | inactive |
| Cc1c(C)c2ccc(OC(C)C(=O)O)cc2oc1=O (stereo unspecified) | – | – | inactive |
| COc1ccc([P+](Cc2ccccc2)(c2ccccc2)c2ccc3ccccc3c2)cc1 (stereo unspecified) | > 200 | 0.794 | – |
| NC(=O)c1nnn(Cc2cc(Cl)c(C(=O)c3ccc(Cl)cc3)c(Cl)c2)c1N | > 200 | – | – |
| C/C(CC(=O)Nc1ccc(Cl)cc1)=N\NC(N)=S | > 871 | 123 | – |
| COC(=O)Nc1cn2nc(C)sc2n1 | > 200 | > 200 | – |
| CC1CC(c2ccc([N+](=O)[O-])cc2)=Nc2ccccc2S1 (stereo unspecified) | > 9.12 | > 9.12 | – |
| c1ccc2oc(NCCSSCCNc3nc4ccccc4o3)nc2c1 | > 200 | 10.5 | – |
| O=C1OC([C@H](O)c2cccnc2)c2ccccc21 (stereo partly specified) | > 200 | > 200 | – |
| O=C(O)c1ccc(S(=O)(=O)O)o1 | > 200 | > 200 | – |
| c1cnn(CN(Cn2cccn2)Cn2cccn2)c1 | – | – | inactive |

— PubChem BioAssay AID179 (DTP/NCI, 2004)
